Data: article PMC12194305, “Assessing Bioconcentration and Biotransformation of BDE-47 In Vitro: The Relevance of Bioavailable and Intracellular Concentrations” (Journal of Xenobiotics, 2025)
Converted amounts (≈) assume the structure as drawn. Like-named read-outs stand apart in the source and are kept apart here.

Assays:
ZFL cells [1] = assay: Cell viability by MTT assay; type: cell-based, zebrafish; details: 72 h
Procedure: Cell viability was determined by MTT assay. A total of 10,000 cells/well were seeded in 96-well plates under culture conditions for 24 h. Then, the culture medium was replaced by contaminated medium (200 µL) with range of concentrations of BDE-47 (0.2–10 mg·L^−1). Three independent replicates with the same experimental conditions, a control group (cells without pollutant) and a blank group (only cell culture medium) were performed. After 72 h, 20 µL of MTT solution (5 mg·mL^−1) was added to provide a final concentration of 0.5 mg·mL^−1 and incubated for 4 h. Formazan produced in the MTT assay was dissolved using 100 μL DMSO, and absorbance was recorded at 595 nm. The results have been subsequently used for the design of the bioaccumulation and biotransformation experiment.

ZFL cells [2] = assay: Mass balance model (MBM) prediction of Cfree and Ccell; parameters: species or system zebrafish
Procedure: Ccell and Cfree were determined for the BDE-47 using Fisher et al.’s mass balance model (MBM). In brief, the test system parameters for the experiment (Table S3) and BDE-47 distribution parameters (Table S4) estimated by the UFZ-LSER Calculation Partition System tool were first entered into the MBM spreadsheet. Although this model includes preset parameters for various cell lines, the input fields for cell-line type and culture medium were left empty for ZFL, and generic parameters were applied instead. Then, data for fractions of cell (fcell), total medium (fmedium), cell membrane (fmem) and the water phase of the medium (fw,medium) compartment were output (Table S5) and applied to each experimentally determined BDE-47 Cmedium to estimate the Cfree, MBM and Ccell, MBM at each exposure time.

rainbow trout [3] = assay: IVIVE-BCF model with rainbow trout default parameters; type: in vitro ADME; details: for BCFIVIVE, RT: ZFL cells, rainbow trout parameters
Description: One of the objectives was to assess whether cell lines can be used within the BCF-IVIVE model, relying on intrinsic clearance in vitro, to estimate the biotransformation rate which is subsequently extrapolated to adult fish. This approach is based on the model developed by Nichols et al. and is endorsed by the OECD guideline 319A [10] and OECD 2018a. Briefly, the log10-transformed substrate experimental concentrations in the medium (Cmed) were plotted against time, and the first-order elimination rate constant (ke, h^−1) was determined as −2.3 × slope of the log-linear decline. Black et al. indicate that a correction to the elimination rate constant (ke) should be applied when the following conditions are met: (i) abiotic losses from volatilization, calculated by comparing the recovery of negative control samples (“no cells”) at each exposure time to the initial time, fall outside the acceptable range of 80–120%, (ii) the loss process follows first order kinetics, and (iii) the ratio of ke and the volatilization rate constant (kvolat) is below 10 (ke/kvolat < 10). Then, the constant corrected for losses due to volatilization (ke,loss) was determined as −2.3 × the difference of the slopes of the sample and the loss control of the log-linear descent. The in vitro constant was then extrapolated to obtain an in vivo metabolization constant (kMET). This was done using experimental cell concentration (CHEP, 10^6 cells/mL) and default parameters derived from rainbow trout. In this study, in addition to estimating BCF with the official model parameters derived from rainbow trout (BCFIVIVE,RT), BCF was also estimated with the literature-derived parameters for zebrafish (BCFIVIVE,ZF), due to the use of ZFL cells. Finally, the BCF was estimated by the ratio of concentration in the organism to concentration in the medium, following the standardized model. The concentration in the organism was predicted using the one-compartment model given by Arnot and Gobas, which includes the rate constants describing chemical uptake (k1), loss through the gills (k2), fecal egestion (kE), growth rate (kG) and metabolization rate (kMET). Except for kMET, which is estimated experimentally in vitro, the rest are only dependent on the log KOW of the compound. On the other hand, due to the use of cell lines, the free concentration estimated was introduced instead of the total concentration in the medium (CW,TOT).

ZFL cells [4] = test system: ZFL cells; parameters: method as in PMID 25544063; details: 10% FBS, cited from earlier work
[5] = parameters: method as in PMID 37289209; details: initial exposure 20 mg·L^−1, HepG2 cell assay at 37 °C; cited from earlier work
zebrafish = assay: IVIVE-BCF model with zebrafish default parameters; type: in vitro ADME; details: k1 and k2 from experimental Ccell and Cfree
rainbow trout [6] = assay: IVIVE-BCF model with rainbow trout default parameters; type: in vitro ADME; details: k1 and k2 from experimental Ccell and Cfree
[7] = test system: zebrafish eleutheroembryos; parameters: method as in PMID 36705440; details: cited from earlier work
[8] = test system: Mytilus galloprovincialis (mussel); details: cited from earlier work
young Psetta maxima = test system: young Psetta maxima; parameters: method as in doi:10.1007/s11270-014-2072-0; details: cited from earlier work
Gammarus pulex = test system: Gammarus pulex; parameters: method as in PMID 24879528; details: 1 µg·L^−1; cited from earlier work

Brc1ccc(Oc2ccc(Br)cc2Br)c(Br)c1 [BDE-47, 2,2′,4,4′-tetrabromodiphenyl ether]
LC30 after applying percentage of Cfree (ZFL cells [1]; bioavailable concentration): 0.00055 mg/L
concentration decreasing viability by 30% (LC30) (ZFL cells [1]; nominal concentration, 10% FBS): 0.45 mg/L
concentration decreasing viability by 50% (LC50) (ZFL cells [1]; nominal concentration, 10% FBS): 2.03 mg/L
Ratio MBM/experimental of internal concentration (ZFL cells [2]; 24h, 1.8 mg·L-1, ZFL cells): 51%
Ratio MBM/experimental of internal concentration (ZFL cells [2]; 24h, 2.6 mg·L-1, ZFL cells): 73%
Ratio MBM/experimental of internal concentration (ZFL cells [2]; 48h, 1.8 mg·L-1, ZFL cells): 44%
Ratio MBM/experimental of internal concentration (ZFL cells [2]; 48h, 2.6 mg·L-1, ZFL cells): 78%
Ratio MBM/experimental of internal concentration (ZFL cells [2]; 72h, 1.8 mg·L-1, ZFL cells): 36%
Ratio MBM/experimental of internal concentration (ZFL cells [2]; 72h, 2.6 mg·L-1, ZFL cells): 66%
CLH (rainbow trout [3]; 1.8 mg·L-1, RT): 8.217 mL/h/kg
CLIN VITRO, INT (rainbow trout [3]; 1.8 mg·L-1, RT): 0.0220 mL/h/106 cells
kMET (rainbow trout [3]; 1.8 mg·L-1, RT): 0.0092 day⁻¹
CLH (rainbow trout [3]; 2.6 mg·L-1, RT): 1.38 mL/h/kg
CLIN VITRO, INT (rainbow trout [3]; 2.6 mg·L-1, RT): 0.0037 mL/h/106 cells
kMET (rainbow trout [3]; 2.6 mg·L-1, RT): 0.0015 day⁻¹
BCFIVIVE, RT (rainbow trout [3]; Cnominal 1.8 mg·L^−1): 7221 L/kg
BCFIVIVE, RT (rainbow trout [3]; Cnominal 2.6 mg·L^−1): 14,184 L·kg^−1
LC50 (24 h) (ZFL cells [4]; 24 h): 1.60 mg/L (≈ 3.29 µM)
LC50 (96 h) (ZFL cells [4]; 96 h): 1.26 mg/L (≈ 2.59 µM)
volatilization loss [5]: 14%
BCFIVIVE, ZF, exp (zebrafish; Cnominal 1.8 mg·L^−1): 22,614 L·kg^−1
BCFIVIVE, ZF, exp (zebrafish; Cnominal 2.6 mg·L^−1): 38,948 L·kg^−1
BCFIVIVE, RT, exp (rainbow trout [6]; Cnominal 1.8 mg·L^−1): 26,306 L·kg^−1
BCFIVIVE, RT, exp (rainbow trout [6]; Cnominal 2.6 mg·L^−1): 48,635 L·kg^−1
BCF48 h ([7]; 1 µg·L^−1, zebrafish larvae): 16,392 L·kg^−1
BCFk ([7]; 1 µg·L^−1, zebrafish larvae): 36,363 L·kg^−1
BCF48 h ([7]; 10 µg·L^−1, zebrafish larvae): 4106 L/kg
BCFk ([7]; 10 µg·L^−1, zebrafish larvae): 7295 L/kg
BCFk ([8]; 0.31 ng·L^−1): 26,000 L·kg^−1
BCFk ([8]; 8 µg·L^−1): 10,900 L·kg^−1
BCFk (young Psetta maxima; 0.001 µg·L^−1): 33,103 L·kg^−1
BCFk (young Psetta maxima; 0.1 µg·L^−1): 15,531 L·kg^−1
BCFk (young Psetta maxima; 1 µg·L^−1): 24,125 L·kg^−1
BCFk (Gammarus pulex): ~5000 L/kg
